US20240122990A1, “COMPOSITIONS AND METHODS FOR CARDIOMYOCYTE TRANSPLANTATION” (UNIVERSITY OF WASHINGTON, priority 2021, published 2024)

How the values were obtained:
[1] = tested on: riPSC-CM cardiomyocyte grafts; test: Allogeneic rhesus iPSC-CM transplantation into MHC-mismatched rhesus recipients, histopathological immune rejection of the graft; assay type: in vivo, rhesus macaque (Macaca mulatta); settings: low-dose subcutaneous TAC alone, trough 5-10 ng/mL; 8 weeks post-transplant; 200×10^6 riPSC-CMs
Source text: To identify a minimal, steroid-sparing immunosuppression regimen for first-in-human allogeneic transplantation, a non-human primate (NHP) model was developed where rhesus iPSC-CM are transplanted into normal or infarcted hearts of MHC-mismatched recipients. Allogeneic iPSCs derived from rhesus macaque (Macaca mulatta) were differentiated into a highly enriched population of cardiomyocytes (riPSC-CMs). 200×10^6 riPSC-CMs were transplanted into 11 MHC-mismatched rhesus recipients. The primary study endpoint was the degree of histopathological immune rejection. […] Subsequent studies focused on 8-week engraftment, with promising regimens studied further out to 16 weeks.

T-cell activation = settings: relative to abatacept; cited from earlier work

Molecule	degree of histopathological immune rejection of the graft [1]	increase in the ability to inhibit T-cell activation in vitro compared to abatacept (T-cell activation) [fold]
C=CC[C@@H]1/C=C(\C)C[C@H](C)C[C@H](OC)[C@H]2O[C@@](O)(C(=O)C(=O)N3CCCC[C@H]3C(=O)O[C@H](/C(C)=C/[C@@H]3CC[C@@H](O)[C@H](OC)C3)[C@H](C)[C@@H](O)CC1=O)[C@H](C)C[C@@H]2OC [tacrolimus]	moderate to severe rejection	–
Belatacept: derivative of abatacept comprising two amino acid alterations in the CD80/86 binding portion	–	10
